From ChEMBL document CHEMBL1201862, “PubChem BioAssay data set” (2004)
Activity calls are given as the source filed them.

Tests used:
[1] = cells; conditions: A549
[2] = inhibitors of SNCA 5'UTR-driven reporter translation, confirmation, H4 neuroglioma cells, luminescence (AID 1988); format: functional, cell-based
[3] = Luminescence Cell-Based Dose Response HTS to Identify Inhibitors of 5'UTR Stem-Loop Driven Prion Protein mRNA Translation in H4 Neuroglioblastoma Cells. [Related pubchem assays: 1827 (Project Summary), 1813 (Primary HTS)]; format: functional
[4] = inhibitors of firefly luciferase expression or activity, dose response, H4 neuroglioma cells, luminescence (AID 1990); format: functional, cell-based
[5] = target: Histone-lysine N-methyltransferase NSD2 (Homo sapiens, UniProt O96028); format: biochemical
[6] = target: Apoptotic protease-activating factor 1 (Homo sapiens, UniProt O14727); format: functional
[7] = human group III sPLA2 inhibitors, dose response, biochemical, QFRET, IC50 (AID 743457);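 note: green fluorescence rise as the enzyme cleaves BODIPY PC-A2 in liposomes; potency for inhibition of the enzyme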
[8] = target: T1, Ubiquitin-conjugating enzyme E2 N (Homo sapiens, UniProt P61088); format: functional;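 note: Dose-response confirmation in a TR-FRET assay detecting UBC13-driven polyubiquitin chain formation, inhibition measured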
T1 sequence (P61088 whole entry): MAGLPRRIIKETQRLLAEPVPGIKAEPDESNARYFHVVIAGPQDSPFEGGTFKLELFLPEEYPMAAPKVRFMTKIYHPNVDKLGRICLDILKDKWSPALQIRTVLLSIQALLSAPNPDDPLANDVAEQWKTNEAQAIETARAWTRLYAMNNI

[9] = microbe, parasite or virus in culture; format: functional; conditions: Mycobacterium tuberculosis
[10] = target: RNA-editing ligase 1, mitochondrial (Trypanosoma brucei brucei, UniProt P86926); experiment: TbREL1 ligase inhibitors, dose response, biochemical, fluorescence, Trypanosoma brucei (AID 1117295); format: functional
[11] = tested on: BHK-21; experiment: BHK-21 cell toxicity, dose response, cytotoxicity control, plate reader, cherry-pick samples (AID 687030); format: functional, cell-based; conditions: Mesocricetus auratus
[12] = target: FAD-linked sulfhydryl oxidase ALR (Homo sapiens, UniProt P55789); experiment: inhibitors of human ALR sulfhydryl oxidase, dose response, biochemical, H2O2 detection, luminescence, cherry-pick (AID 493248)
[13] = target: SWI/SNF-related matrix-associated actin-dependent regulator of chromatin subfamily A member 2 (Homo sapiens, UniProt P51531); experiment: Luminescence-based cell-based high throughput dose response assay to identify activators of the function of SWI/SNF related, matrix associated, actin dependent regulator of chromatin, subfamily a, member 2 (SMARCA2, BRM).; format: functional
[14] = Counterscreen for activators of the function of SWI/SNF related, matrix associated, actin dependent regulator of chromatin, subfamily a, member 2 (SMARCA2, BRM): Luminescence-based cell-based high throughput dose response assay to identify non-selective compounds using the VP16 reporter assay.; format: functional
[15] = target: Major prion protein (Homo sapiens, UniProt P04156); format: functional, cell-based
[16] = cells
[17] = target: NAD-dependent protein deacylase sirtuin-5, mitochondrial (Homo sapiens, UniProt Q9NXA8); experiment: SIRT5 desuccinylase inhibitors, dose response, biochemical, fluorescence imaging, cherry-pick, set 5 (AID 720591);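 note: desuccinylation of succinyl peptide AMC substrate read as fluorescence after trypsin release; potency of inhibitors that lower fluorescence and may act on trypsin instead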
[18] = cells; conditions: HEK293
[19] = HEK293 Cytotoxicity Assay Measured in Cell-Based System Using Plate Reader - 7071-01_Inhibitor_Dose_CherryPick_Activity_Set2.; format: functional
[20] = tested on: HeLa; experiment: HeLa cell cytotoxicity, dose response, cytotoxicity control, ATP luminescence, cherry-pick samples (AID 687004); format: functional, cell-based; conditions: Homo sapiens
[21] = tested on: HEK293; experiment: HEK293T cell cytotoxicity, dose response, cytotoxicity control, ATP luminescence, cherry-pick samples (AID 687005); format: functional, cell-based; conditions: Homo sapiens;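 note: cells exposed to compound for 48 hours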
[22] = cytotoxicity dependent on PAX8, dose response, cell-based, plate reader, dry powder (AID 743049); format: functional
[23] = target: Paired box protein Pax-8 (Homo sapiens, UniProt Q06710); experiment: inhibitors of PAX8-driven TPO luciferase reporter, dose response, RMG-I cells, cherry-pick (AID 687027); format: functional, cell-based;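 note: luciferase reporter driven by Pax8 target thyroperoxidase promoter measured by SteadyGlo luminescence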
[24] = PAX2 cell-based inhibition, dose response, selectivity assay for PAX8 inhibitor project, plate reader, dry powder samples (AID 743048); format: functional;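 note: HEK293 cells carrying a WT1 promoter luciferase reporter driven by expressed Pax2; potency is for inhibition of Pax2 driven reporter signal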
[25] = cytotoxicity in COV434 cells, dose response, cytotoxicity control for PAX8 inhibitor project, cell-based, plate reader, dry powder, SA7 (AID 743145); format: functional
[26] = PAX5 activity inhibitors, dose response, selectivity assay for PAX8 inhibitor project, cell-based, plate reader, dry powder samples (AID 743047); format: functional;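 note: HEK293 cells carrying a Pax5 driven CD19 promoter luciferase reporter; potency of inhibitors that lower reporter luminescence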
[27] = cytotoxicity in OVCAR8 ovarian cancer cells, dose response, PAX8 project, cell-based, plate reader, dry powder samples (AID 743197); format: functional; conditions: OVCAR-8
[28] = A2780 ovarian cancer cell cytotoxicity, dose response, cytotoxicity control, plate reader, dry powder samples (AID 743046); format: functional, cell-based
[29] = target: Potassium channel subfamily K member 9 (Homo sapiens, UniProt Q9NPC2); experiment: TASK3 (KCNK9) channel inhibitors, thallium flux, SAR follow-up, selectivity assay for TASK1 inhibitor project, cell-based, FluxOR thallium flux, concentration-response (AID 652211); format: functional;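 note: potency is for inhibitors of the channel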
[30] = target: Potassium channel subfamily K member 3 (Homo sapiens, UniProt O14649); experiment: TASK1 (KCNK3) potassium channel inhibitors, SAR follow-up, CHO cells, FluxOR thallium flux (AID 652212); format: functional
[31] = T. cruzi growth inhibition in host cells, dose response, cell-based, plate reader, dry powder, set 2 (AID 652275); format: functional
[32] = T. cruzi intracellular amastigote growth inhibition, dose response, imaging, CA-I/72 strain, bovine embryo skeletal muscle, dry powder (AID 651885); format: functional, cell-based
[33] = Late stage assay provider results from the probe development effort to identify inhibitors of the Plasmodium falciparum M18 Aspartyl Aminopeptidase (M18AAP): radiolabel-based cell-based dose response assay to identify compounds that inhibit P. falciparum growth in RBCs, Set 2..; format: functional
[34] = Late stage assay provider results from the probe development effort to identify selective inhibitors of heat shock protein 90 (HSP90): Absorbance-based cell proliferation assay in SKBR3 cells.; format: functional; conditions: SK-BR-3
[35] = Late stage assay provider results from the probe development effort to identify selective inhibitors of heat shock protein 90 (HSP90): Absorbance-based cell proliferation assay in MCF7 cells.; format: functional
[36] = cytotoxicity in HeLa cells, dose response, cytotoxicity control, cell-based, plate reader, dry powder (AID 651946); format: functional
[37] = MITF Measured in Cell-Based System Using Plate Reader - 2084-01_Inhibitor_Dose_DryPowder_Activity_Set7.; format: functional
[38] = SK-MEL-5 parental line viability, dose response, MITF inhibitor project, cell-based, CellTiter-Glo, dry powder, set 6 (AID 624429); format: functional
[39] = MITF Orthogonal Assay: SK-MEL-5 CTG Assay Measured in Cell-Based System Using Plate Reader - 2084-02_Inhibitor_Dose_DryPowder_Activity_Set5.; format: functional
[40] = MITF Measured in Cell-Based System Using Plate Reader - 2084-01_Inhibitor_Dose_DryPowder_Activity_Set6.; format: functional
[41] = A375 melanoma cell cytotoxicity, dose response, counter-screen for MITF inhibitor project, CellTiter-Glo luminescence, dry powder, set 7 (AID 624490); format: functional, cell-based; conditions: A-375
[42] = target: T2, Oxysterols receptor LXR-beta (Homo sapiens, UniProt P55055); format: functional, cell-based;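 note: agonist activity at LXR measured by a cell-based luminescence readout across a dose range, run as a counterscreen for daf-12 agonists; HEK293 cells with Gal4-LXR fusion and GAL4-driven luciferase reporter; potency for activation of Gal4-LXR reporter so compounds are agonists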
T2 sequence (P55055 whole entry): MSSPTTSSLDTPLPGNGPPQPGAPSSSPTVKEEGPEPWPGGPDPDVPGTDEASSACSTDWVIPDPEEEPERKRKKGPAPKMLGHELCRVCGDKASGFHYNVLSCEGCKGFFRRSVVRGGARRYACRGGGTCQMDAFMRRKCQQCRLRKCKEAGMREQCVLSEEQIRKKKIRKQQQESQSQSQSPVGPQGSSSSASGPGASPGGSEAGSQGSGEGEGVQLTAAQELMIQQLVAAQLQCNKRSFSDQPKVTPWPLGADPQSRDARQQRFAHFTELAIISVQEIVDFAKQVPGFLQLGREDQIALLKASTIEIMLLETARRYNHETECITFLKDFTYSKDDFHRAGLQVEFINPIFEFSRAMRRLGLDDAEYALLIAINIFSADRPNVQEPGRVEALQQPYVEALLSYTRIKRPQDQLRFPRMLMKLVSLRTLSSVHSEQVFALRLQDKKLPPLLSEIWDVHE

[43] = P. falciparum Dd2 growth inhibitors, dose response, SYBR Green, dry powder samples (AID 1159566); format: functional, cell-based;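 note: potency for growth inhibition with lower SYBR green DNA signal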
[44] = P. falciparum ATP4 D1247Y mutant growth inhibitors, dose response, NITD609-resistant line, SYBR Green, dry powder (AID 1159571); format: functional, cell-based;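 note: parasites synchronized at ring stage by sorbitol before testing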
[45] = HepG2 cell cytotoxicity, dose response, cytotoxicity control, plate reader, dry powder samples (AID 1159569); format: functional, cell-based;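 note: inhibitor potency with signal falling toward the positive control level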
[46] = Plasmodium falciparum Dd2 Sybr green parasite growth Measured in Cell-Based and Microorganism Combination System Using Plate Reader - 2153-01_Inhibitor_Dose_DryPowder_Activity_Set3.; format: functional
[47] = P. falciparum Dd2 growth inhibitors, dose response, SYBR Green, cherry-picked samples (AID 1159567); format: functional, cell-based
[48] = P. falciparum 3D7-ScDHODH growth inhibitors, dose response, SYBR Green, dry powder samples (AID 1159570); format: functional, cell-based;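 note: parasite growth measured after 72 hours of compound exposure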
[49] = target: Metabotropic glutamate receptor 7 (Homo sapiens, UniProt Q14831); experiment: mGlu7 positive allosteric modulators, dose response, cell-based, calcium mobilization, Galpha15 (AID 743384); format: functional
[50] = target: fMet-Leu-Phe receptor (Homo sapiens, UniProt P21462); experiment: FPR ligands, dose response (AID 519); format: functional
[51] = Dose-response inhibition of insulin secretion in a rat insulinoma line at 5 mM glucose (AID 1117331); format: functional, cell-based; conditions: INS-1E

## CCC(=O)NCCCNc1nc2c(C)cccc2cc1C#N
[1]
  AC50: > 52 µM (inactive)
[2]
  EC50: > 120 µM (not active)
[3]
  EC50: > 120 µM (not active)
[4]
  EC50: 25.9 µM (active)

## O=C1C(Cl)=C(NCCN2CCOCC2)C(=O)c2ccccc21
[5]
  AC50: 10.8 µM (active)
[6]
  IC50: 22 µM (active)

## Cc1ccccc1N=C(S)c1nc2ccccc2[nH]1
[7]
  IC50: > 122 µM (inactive)

## COc1ccc(C[C@H]2CN3C(=NC[C@H]3Cc3ccccc3)N2CCNC(=O)CCC2CCCCC2)cc1
[8]
  IC50: > 20 µM (inactive)
[9]
  CC50: 23.8 µM (active)
[10]
  IC50: > 96.6 µM (inactive)

## NNC(=O)c1ccc(-c2ccccc2F)cc1
[11]
  AC50: 19.3 µM (active)

## COc1ccc(-n2nnnc2S(=O)(=O)Cc2ccc(C(=O)O)cc2)cc1
[12]
  AC50: 0.038 µM (active)
[13]
  EC50: > 91.2 µM (inactive)
[14]
  EC50: > 91.2 µM (inactive)

## CN(C)S(=O)(=O)c1ccc(N2CCCC2)c(C(=O)Nc2nccs2)c1
[15]
  IC50: 14.8 µM (inactive)
[16]
  IC50: > 138 µM (inactive)

## CC(C)(C)OC(=O)N(CCc1ccccc1)Cc1ccccc1OCc1cccc(NC(=O)C2CCCC2)c1
[17]
  AC50: > 30 µM (inactive)

## Cc1cccn2c(=O)c3cc(C(=O)NCc4ccc(F)cc4)c(=N)n(CCCN4CCOCC4)c3nc12
[18]
  AC50: > 52 µM (inactive)

## C[C@H]1CN([C@@H](C)CO)S(=O)(=O)c2ccc(C#Cc3cccc(F)c3)cc2O[C@@H]1CN(C)C(=O)NC1CCCCC1
[19]
  AC50: 8.15 µM (active)
[20]
  AC50: 34.4 µM (active)
[21]
  AC50: 8.15 µM (active)

## CCCC#Cc1ccc([C@@H]2[C@@H](C#N)N(S(=O)(=O)c3cccc(F)c3)[C@H]2CO)cc1
[22]
  AC50: 37 µM (active)
[23]
  AC50: 5.96 µM (active)
[24]
  AC50: 28.2 µM (active)
[25]
  AC50: > 70 µM (inactive)
[26]
  AC50: 24.2 µM (active)
[27]
  AC50: 43.1 µM (active)

## COc1ccc2c3c(n(C)c2c1)[C@H](CO)N(C(=O)Nc1ccc(F)cc1)CC31CCN(S(=O)(=O)c2cccc(C)c2)CC1
[23]
  AC50: 7.72 µM (active)
[28]
  AC50: 38.8 µM (active)
[27]
  AC50: 58 µM (active)

## Cc1cccc(C(=O)Nc2cccc(NC(=O)c3cccs3)c2)c1
[29]
  IC50: 0.23 µM (active)
[30]
  IC50: 0.007 µM (active)

## C[C@@H]1CN([C@@H](C)CO)C(=O)c2cccc(NC(=O)c3cnccn3)c2O[C@H]1CN(C)Cc1ccc(Oc2ccccc2)cc1
[31]
  AC50: 1.96 µM (active)
[32]
  IC50: > 20 µM (inactive)

## COc1ccc(CCNc2c3c(nc4ccccc24)CCCC3)cc1OC
[33]
  IC50: 16.5 µM (inactive)

## COc1ccccc1NC(=O)c1ccc(=O)oc1
[34]
  IC50: 33.1 µM (inactive)
[35]
  IC50: 30.2 µM (inactive)

## c1ccc(-c2nnc(SCc3ncco3)o2)cc1
[36]
  AC50: > 52 µM (inactive)

## O=C1C(NS(=O)(=O)c2ccccc2)=C(c2ccccc2)C(=O)c2ccccc21
[37]
  AC50: 41 µM (active)
[38]
  AC50: 65.6 µM (active)
[39]
  AC50: 56.7 µM (active)
[40]
  AC50: 61.4 µM (active)
[41]
  AC50: > 70 µM (inactive)

## COC1=C/C(=C/c2c(O)c(C#N)c3ccccn23)C=CC1=O
[42]
  EC50: > 67.5 µM (inactive)

## CCCNC(=O)N1[C@H](C#N)[C@H](c2ccc(C3=CCCCC3)cc2)[C@H]1CO
[43]
  AC50: 0.113 µM (active)
[44]
  AC50: 0.163 µM (active)
[45]
  AC50: > 100 µM (inactive)
[46]
  AC50: 0.374 µM (active)
[47]
  AC50: 0.424 µM (active)
[48]
  AC50: 18.3 µM (active)

## CC(=O)Nc1ccc(OCC(=O)c2cc(C)n(-c3ccc(OC(F)F)cc3)c2C)cc1
[49]
  EC50: 2.4 µM (active)

## Cc1ccc(C(=O)C2=C(O)C(=O)N(Cc3ccccc3)C2c2cccnc2)o1 (stereo not drawn)
[50]
  Ki: > 66.7 µM (inactive)

## CNCCCCOc1ccccc1Cc1ccccc1 [BIFEMELANE]
[51]
  IC50: > 33.3 µM (inactive)
